This passage reports IC90 and Ki results from patent USRE37781E1, “Substituted cyclic carbonyls and derivatives thereof useful as retroviral protease inhibitors” (DuPont Pharmaceuticals Company, priority 1991, dated 2002).

Usually IC90 stands for the concentration needed for an effect of 90%.

The subject of one test is HIV-1 (RF) in MT-2 cells. Put plainly: microbe, parasite or virus in culture. The test is classed as cell-based. How it is done: DNA Plasmids and in vitro RNA transcripts:
Plasmid pDAB 72 containing both gag and pol sequences of BH10 (bp 113-1816) cloned into PTZ 19R was prepared according to Erickson-Viitanen et al. AIDS Research and Human Retroviruses 1989, 5, 577. The plasmid was linearized with Bam HI prior to the generation of in vitro RNA transcripts using the Riboprobe Gemini system II kit (Promega) with T7 RNA polymerase. Synthesized RNA was purified by treatment with RNase free DNAse (Promega), phenol-chloroform extraction, and ethanol precipitation. RNA transcripts were dissolved in water, and stored at −70° C. The concentration of RNA was determined from the A260.
Biotinylated capture probes were purified by HPLC after synthesis on an Applied Biosystems (Foster City, Calif.) DNA synthesizer by addition of biotin to the 5′ terminal end of the oligonucleotide, using the biotin-phosphoramidite reagent of Cocuzza, Tet. Lett. 1989, 30, 6287. The gag biotinylated capture probe (5-biotin-[…] 3′) was complementary to nucleotides 889-912 of HXB2 and the pol biotinylated capture probe (5′-biotin-[…] 3′) was complementary to nucleotides 2374-2395 of HXB2. Alkaline phosphatase conjugated oligonucleotides used as reporter probes were prepared by Syngene (San Diego, Calif.). The pol reporter probe (5′ […] 3′) was complementary to nucleotides 2403-2425 of HXB2. The gag reporter probe (5′ […] 3′) was complementary to nucleotides 950-973 of HXB2. All nucleotide positions are those of the GenBank Genetic Sequence Data Bank as accessed through the Genetics Computer Group Sequence Analysis Software Package (Devereau Nucleic Acids Research 1984, 12, 387). The reporter probes were prepared as 0.5μM stocks in 2× SSC (0.3M NaCl, 0.03M sodium citrate), 0.05M Tris pH 8.8, 1 mg/mL BSA. The biotinylated capture probes were prepared as 10 μM stocks in water.
Streptavidin coated plates:
Nunc-immunomodule microtiter plate strips were coated by addition of 200 μL of streptavidin (30 ug/mL, Scripps, La Jolla, Calif.) in freshly prepared 10 mM sodium carbonate (pH 9.6). Plates were incubated overnight at 4° C. Streptavidin solution was aspirated from the wells and a blocking buffer composed of phosphate buffered saline (PBS), 20 mg/mL bovine serum albumin (crystalline, nuclease and protease free, Calbiochem) and 100 mg/mL lactose (Sigma) was added to the plates for 3 hrs at room temperature. Blocking buffer was removed from the wells, which were allowed to dry overnight at room temperature and subsequently stored at 4° C. in zip lock bags with desiccant. For the majority of the compound evaluation experiments, streptavidin coated plates were obtained from Du Pont Biotechnology Systems (Boston, Mass.).
MT-2, CEM, and H9 cells were maintained in RPMI 1640 supplemented with 5% fetal calf serum (FCS), 2 mM L-glutamine and 50 μg/mL gentamycin, all from Gibco. Laboratory strains of HIV-1 (RF, MN and IIIB) were propagated in H9 cells in the same medium. Virus stocks were prepared approximately 1 month after acute infection of H9 cells by clarification of the tissue culture medium and storage of aliquots at −70° C. […] Each aliquot of virus stock used for infection was thawed only once. In some cases, infected H9 cells were shifted to Dulbecco's modified Eagle's medium 3-10 days before collection of virus in order to generate virus stocks in medium with low biotin content. Clinical isolates of HIV that had been passaged once in MT-2 cells were used to infect fresh MT-2 cells in RPMI medium. Three days after infection, cells were pelleted, resuspended and culture continued in Dulbecco's modified Eagle's medium as above. Virus stocks of clinical isolates were prepaid 10-15 days after infection when cytopathic effects were apparent in the culture.

Test [1] deals with single-chain tethered dimer of HIV protease (Human immunodeficiency virus 1, UniProt P04585). Put plainly: biochemical. The test is classed as biochemical. Also noted: fused on or other part: A second copy of the same protease unit is joined to the first by a short peptide tether, giving one polypeptide.
[2] abbreviates: Table 2d, HIV protease inhibition, HPLC method, read-out: HPLC K1.
[3] abbreviates: Human immunodeficiency virus 1, MT2, 48 h, Table 2d, class symbols, read-out: IC90.
The mark [4] stands for this setting: read-out: HPLC K1, Table 2d, class symbols.

pKi: −log10 of the molar value. In brackets after ≈: the same amount, converted by molar mass. Read-outs that look alike come from different tables or passages of the source.

Turning to `COc1cccc(CC2C(O)C(O)C(Cc3cccc(OC)c3)N(Cc3ccc(CO)cc3)C(=O)N2Cc2ccc(CO)cc2)c1` (stereo not shown) [20AT], the IC90 result in the test on HIV-1 (RF) in MT-2 cells (Table 2i) is listed as “+++ (+++=<10 μg/mL)”. The pKi in test [1] (Table 2i, read-out: HPLC Ki) is above 8.00.
In the case of `CC(=O)c1cccc(CN2C(=O)N(Cc3cccc(C(=O)CCN(C)C)c3)C(Cc3ccccc3)C(O)C(O)C2Cc2ccccc2)c1` (stereo not shown) [15AD], in the test with HIV-1 (RF) in MT-2 cells (Table 2d, HIV RNA assay), the IC90 entry is “+++ (+++=<10 μg/mL)”. Besides, the pKi in test [1] (setting [2]) is above 8.00.
Take `CNC(=NO)c1cccc(CN2C(=O)N(Cc3cccc(C(=NO)NC)c3)C(Cc3ccccc3)C(O)C(O)C2Cc2ccccc2)c1` (stereo not shown) [15AZ]: the IC90 entry in the test on HIV-1 (RF) in MT-2 cells (Table 2d, HIV RNA assay) is “+++ (+++=<10 μg/mL)”. Moreover, the pKi in test [1] (setting [2]) was above 8.00.
Consider `O=C1N(CC2CC2)C(Cc2ccccc2)C(O)C(O)C(Cc2ccccc2)N1CC1CC1` (stereo not shown) [Example 13J], for which the IC90 result in the test with HIV-1 (RF) in MT-2 cells (Table 2d, class symbols) is “+++ (+++=<10 μg/mL)”. The pKi in test [1] (Table 2d, class symbols, read-out: HPLC K1) is above 8.00.
For the molecule `O=C1NC(Cc2ccccc2)C(O)C(O)C(Cc2ccccc2)N1CC1CC1CO` (stereo not shown) [Example 12N], the IC90 in the test on HIV-1 (RF) in MT-2 cells (setting [3]) is above 100 µg/mL. The pKi in test [1] (setting [4]) was 6.00 to 8.00.
For `CSCCCCCN1C(=O)N(CCCCCO)C(Cc2ccccc2)C(O)C(O)C1Cc1ccccc1` (stereo not shown) [Example 15VJ], in that order: below 10 µg/mL and 6.00 to 8.00.
For `CC(=NO)c1cccc(CN2C(=O)N(Cc3cccc(C(C)=NO)c3)C(Cc3ccc(F)cc3)C(O)C(O)C2Cc2ccc(F)cc2)c1` (stereo not shown) [20U], in the test on HIV-1 (RF) in MT-2 cells (Human immunodeficiency virus 1, MT2, Table 2i, read-out: IC90), the IC90 is below 10 µg/mL. The pKi in test [1] (read-out: HPLC Ki, Table 2i) was above 8.00.
For `NC(=NO)c1cccc(CN2C(=S)N(Cc3ccc(CO)cc3)C(Cc3ccccc3)C(O)C(O)C2Cc2ccccc2)c1` (stereo not shown) [Example 27I], in the test on HIV-1 (RF) in MT-2 cells (Table 2q), the IC90 result is “+++ (+++=<10 μg/mL)”. In addition, the pKi in test [1] (Table 2q, read-out: HPLC Ki) was above 8.00.
For `N#Cc1cccc(CN2C(=O)N(CCCCCO)C(Cc3ccccc3)C(O)C(O)C2Cc2ccccc2)c1` (stereo not shown) [Example 15VX], in the test with HIV-1 (RF) in MT-2 cells (setting [3]), the IC90 is below 10 µg/mL. In addition, in test [1] (setting [4]), the pKi is above 8.00.
For `COCCCCCN1C(=O)N(CCCCCO)C(Cc2ccccc2)C(O)C(O)C1Cc1ccccc1` (stereo not shown) [Example 15VW], in that order: below 10 µg/mL and above 8.00.
For `O=C1N(Cc2cccnc2)C(Cc2ccccc2)C(O)C(O)C(Cc2ccccc2)N1Cc1cccc(CO)c1` (stereo not shown) [15WS], in that order: below 10 µg/mL and above 8.00.
For the molecule `O=C(NCCCCCN1C(=O)N(CCCCCNC(=O)c2ccccc2F)C(Cc2ccccc2)C(O)C(O)C1Cc1ccccc1)c1ccccc1F` (stereo not shown) [15FB], the IC90 entry in the test on HIV-1 (RF) in MT-2 cells (HIV RNA assay, HIV-1 infected MT-2 cells, Table 2d) is given as “+++ (+++=<10 μg/mL)”. In addition, the pKi in test [1] (HIV protease inhibition, HPLC method, Table 2d, read-out: HPLC K1) is 6.00 to 8.00.
Consider `N#Cc1cccc(CN2C(=S)N(Cc3ccccc3)C(Cc3ccccc3)C(O)C(O)C2Cc2ccccc2)c1` (stereo not shown) [Example 27E], for which the IC90 entry with HIV-1 (RF) in MT-2 cells (Table 2q) is reported as “+++ (+++=<10 μg/mL)”. Moreover, the pKi in test [1] (Table 2q, read-out: HPLC Ki) was above 8.00.
With `CCCNC(=O)c1cccc(CN2C(=O)N(Cc3cccc(C(=O)NCCC)c3)C(Cc3ccccc3)C(O)C(O)C2Cc2ccccc2)c1` (stereo not shown) [15WM], in the test on HIV-1 (RF) in MT-2 cells (setting [3]), the IC90 is below 10 µg/mL. Further, the pKi in test [1] (setting [4]) was above 8.00.
For `CCC(CN1C(=O)N(CC(CC)=NO)C(Cc2ccccc2)C(O)C(O)C1Cc1ccccc1)=NO` (stereo not shown) [Example 15VP], in that order: 10 to 100 µg/mL (≈ 20.1 to 201 µM) and 6.00 to 8.00.
As for `O=C1N(Cc2ccc3oc(=O)[nH]c3c2)C(Cc2ccccc2)C(O)C(O)C(Cc2ccccc2)N1Cc1ccc2oc(=O)[nH]c2c1` (stereo not shown) [15DC], in the test with HIV-1 (RF) in MT-2 cells (Table 2d, HIV RNA assay), the IC90 result was “+++ (+++=<10 μg/mL)”. In addition, in test [1] (setting [2]), the pKi is above 8.00.
Regarding `O=C1N(Cc2cccc(Cn3ccnc3)c2)C(Cc2ccccc2)C(O)C(O)C(Cc2ccccc2)N1Cc1cccc(Cn2ccnc2)c1` (stereo not shown) [Example 15XG], in the test on HIV-1 (RF) in MT-2 cells (Human immunodeficiency virus 1, MT2, 48 h, Table 2d, HIV RNA assay, read-out: IC90), the IC90 was below 10 µg/mL. Further, the pKi in test [1] (read-out: HPLC K1, Table 2d, HIV protease inhibition, HPLC method) was above 8.00.
